Assay results: US6737383B1, “Herbicidal oxadiazolidines” (priority 1999, dated 2004)

How the values were obtained:
soybean = assay: Test B pre/postemergence soybean; assay type: in vivo, Glycine max
Method in brief: (§1)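 Response is a visual 0-to-10 score relative to untreated plants, where 0 means no effect and 10 means complete control, taken twelve to sixteen days after application. Treatments went onto soil at planting and onto foliage of 1- to 4-leaf plants, using a surfactant-containing non-phytotoxic solvent.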

crabgrass = assay: Test B pre/postemergence crabgrass; assay type: in vivo, Digitaria sanguinalis
Method in brief: as §1

surinam grass = assay: Test B pre/postemergence surinam grass; assay type: in vivo, Brachiaria decumbens
Method in brief: as §1

corn = assay: Test B pre/postemergence corn; assay type: in vivo, Zea mays
Method in brief: as §1

pigweed = assay: Test B pre/postemergence pigweed; assay type: in vivo, Amaranthus retroflexus
Method in brief: as §1

rice = assay: Test B flood test rice; assay type: in vivo, Oryza sativa
Method in brief: (§2)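 Read-out is a visual response score from 0 (no effect) to 10 (complete control), assigned by comparison with untreated controls. Treatment was applied at the 2-leaf stage, and plants stayed in the greenhouse for twelve to sixteen days before scoring.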

morningglory = assay: Test B pre/postemergence morningglory; assay type: in vivo, Ipomoea hederacea
Method in brief: as §1

wheat = assay: Test B pre/postemergence wheat; assay type: in vivo, Triticum aestivum
Method in brief: as §1

smallflower flatsedge = assay: Test B flood test smallflower flatsedge; assay type: in vivo, Cyperus difformis
Method in brief: as §2

bedstraw = assay: Test B pre/postemergence bedstraw; assay type: in vivo, Galium aparine; conditions: scale of 0 to 10 where 0 is no effect and 10 is complete control
Method in brief: as §1

rape = assay: Test B pre/postemergence rape; assay type: in vivo, Brassica napus
Method in brief: as §1

bamyardgrass = assay: Test B flood test barnyardgrass; assay type: in vivo, Echinochloa crus-galli
Method in brief: as §2

cocklebur = assay: Test B pre/postemergence cocklebur; assay type: in vivo, Xanthium strumarium
Method in brief: as §1

giant foxtail = assay: Test B pre/postemergence giant foxtail; assay type: in vivo, Setaria faberii
Method in brief: as §1

velvetleaf = assay: Test B pre/postemergence velvetleaf; assay type: in vivo, Abutilon theophrasti
Method in brief: as §1

sugar beet = assay: Test B pre/postemergence sugar beet; assay type: in vivo, Beta vulgaris
Method in brief: as §1

wild oat = assay: Test B pre/postemergence wild oat; assay type: in vivo, Avena fatua
Method in brief: as §1

duck salad = assay: Test B flood test duck salad; assay type: in vivo, Heteranthera limosa
Method in brief: as §2

blackgrass = assay: Test B pre/postemergence blackgrass; assay type: in vivo, Alopecurus myosuroides
Method in brief: as §1

purple nutsedge = assay: Test B pre/postemergence purple nutsedge; assay type: in vivo, Cyperus rotundus
Method in brief: as §1

[1] = Preemergence, Rate 250 g/ha, scale of 0 to 10 where 0 is no effect and 10 is complete control
[2] = Preemergence, Rate 500 g/ha, scale of 0 to 10 where 0 is no effect and 10 is complete control
[3] = Rate 62 g/ha, Postemergence, scale 0 to 10, 0 no effect, 10 complete control
[4] = Rate 125 g/ha, Postemergence, scale of 0 to 10 where 0 is no effect and 10 is complete control
[5] = Rate 250 g/ha, Postemergence, scale of 0 to 10 where 0 is no effect and 10 is complete control
[6] = Rate 500 g/ha, Postemergence, scale 0 to 10, 0 no effect, 10 complete control
[7] = Rate 62 g/ha, headed Pre-emergence (flood test species), scale 0 to 10 (0 no effect, 10 complete control)
[8] = Rate 125 g/ha, Pre-emergence, flood test species, scale 0 to 10 where 0 is no effect and 10 is complete control
[9] = Rate 250 g/ha, Pre-emergence, flood-test species, scale 0 to 10, 0 is no effect, 10 is complete control
[10] = Rate 500 g/ha, Pre-emergence, flood test species, scale 0 to 10 (0 no effect, 10 complete control)

`CCc1cccc(CC)c1-n1c(=O)on(C(=O)N(c2ccccc2)C(C)C)c1=O` [Compound 305] was tested, and the “Soybean plant response rating (0 to 10 scale)” value (soybean; Preemergence, Rate 125 g/ha) was 0, the “Soybean plant response rating” value (soybean; [1]) was 0 and the “Soybean plant response rating” value (soybean; [2]) was 0. The “Soybean plant response rating” value (soybean; [3]) was 4, the “Soybean plant response rating” value (soybean; [4]) was 4 and the “Plant response rating, Soybean” value (soybean; [5]) was 4. For the same compound, the “Crabgrass plant response rating (0 to 10 scale)” value (crabgrass; Preemergence, Rate 125 g/ha) was 4, the “Crabgrass plant response rating” value (crabgrass; [1]) was 6 and the “Crabgrass plant response rating” value (crabgrass; [2]) was 7. The “Crabgrass plant response rating” value (crabgrass; [3]) was 0, the “Crabgrass plant response rating” value (crabgrass; [4]) was 0 and the “Plant response rating, Crabgrass” value (crabgrass; [5]) was 0. For the same compound, the “B. signalgrass plant response rating (0 to 10 scale, 0 is no effect, 10 is complete control)” value (surinam grass; Preemergence, Rate 125 g/ha) was 0, the “B. signalgrass plant response rating” value (surinam grass; [1]) was 0 and the “B. signalgrass plant response rating” value (surinam grass; [2]) was 5. The “B. signalgrass plant response rating” value (surinam grass; [3]) was 0, the “B. signalgrass plant response rating” value (surinam grass; [4]) was 0 and the “Plant response rating, B. signalgrass” value (surinam grass; [5]) was 0. For the same compound, the “B. signalgrass plant response rating” value (surinam grass; [6]) was 0, the “Corn plant response rating (0 to 10 scale)” value (corn; Preemergence, Rate 125 g/ha) was 0 and the “Corn plant response rating” value (corn; [1]) was 0. The “Corn plant response rating” value (corn; [2]) was 0, the “Corn plant response rating” value (corn; [3]) was 0 and the “Corn plant response rating” value (corn; [4]) was 0. The “Plant response rating, Corn” value (corn; [5]) was 0, the “Corn plant response rating” value (corn; [6]) was 0 and the “Redroot pigweed plant response rating (0 to 10 scale)” value (pigweed; Preemergence, Rate 125 g/ha) was 0. For the same compound, the “Redroot pigweed plant response rating” value (pigweed; [1]) was 3, the “Redroot pigweed plant response rating” value (pigweed; [2]) was 7 and the “Redroot pigweed plant response rating” value (pigweed; [3]) was 3. For the same compound, the “Redroot pigweed plant response rating” value (pigweed; [4]) was 3, the “Plant response rating, Redroot pigweed” value (pigweed; [5]) was 4 and the “Rice plant response rating” value (rice; [7]) was 0. The “Rice plant response rating” value (rice; [8]) was 0, the “Rice plant response rating” value (rice; [9]) was 0 and the “Rice plant response rating” value (rice; [10]) was 0. The “Morningglory plant response rating (0 to 10 scale)” value (morningglory; Preemergence, Rate 125 g/ha) was 0, the “Morningglory plant response rating” value (morningglory; [1]) was 0 and the “Morningglory plant response rating” value (morningglory; [2]) was 0. For the same compound, the “Morningglory plant response rating” value (morningglory; [3]) was 0, the “Morningglory plant response rating” value (morningglory; [4]) was 0 and the “Plant response rating, Morningglory” value (morningglory; [5]) was 0. For the same compound, the “Wheat plant response rating (0 to 10 scale)” value (wheat; Preemergence, Rate 125 g/ha) was 0, the “Wheat plant response rating” value (wheat; [1]) was 0 and the “Wheat plant response rating” value (wheat; [2]) was 0. The “Wheat plant response rating” value (wheat; [3]) was 0, the “Wheat plant response rating” value (wheat; [4]) was 0 and the “Plant response rating, Wheat” value (wheat; [5]) was 0. For the same compound, the “S. Flatsedge plant response rating” value (smallflower flatsedge; [7]) was 0, the “S. Flatsedge plant response rating” value (smallflower flatsedge; [8]) was 0 and the “S. Flatsedge plant response rating” value (smallflower flatsedge; [9]) was 0. The “S. Flatsedge plant response rating” value (smallflower flatsedge; [10]) was 0, the “Bedstraw plant response rating” value (bedstraw; Preemergence, Rate 250 g/ha) was 0 and the “Bedstraw plant response rating” value (bedstraw; Preemergence, Rate 500 g/ha) was 0. For the same compound, the “Bedstraw plant response rating” value (bedstraw; Rate 125 g/ha, Postemergence) was 0, the “Rape plant response rating (0 to 10 scale)” value (rape; Preemergence, Rate 125 g/ha) was 0 and the “Rape plant response rating” value (rape; [1]) was 0. For the same compound, the “Rape plant response rating” value (rape; [2]) was 0, the “Rape plant response rating” value (rape; [3]) was 0 and the “Rape plant response rating” value (rape; [4]) was 0. The “Plant response rating, Rape” value (rape; [5]) was 0, the “Barnyardgrass plant response rating” value (bamyardgrass; [7]) was 0 and the “Barnyardgrass plant response rating” value (bamyardgrass; [8]) was 0. The “Barnyardgrass plant response rating” value (bamyardgrass; [9]) was 0, the “Barnyardgrass plant response rating” value (bamyardgrass; [10]) was 0 and the “Cocklebur plant response rating (0 to 10 scale)” value (cocklebur; Preemergence, Rate 125 g/ha) was 0. For the same compound, the “Cocklebur plant response rating” value (cocklebur; [1]) was 0, the “Cocklebur plant response rating” value (cocklebur; [2]) was 0 and the “Cocklebur plant response rating” value (cocklebur; [3]) was 0. For the same compound, the “Cocklebur plant response rating” value (cocklebur; [4]) was 0, the “Plant response rating, Cocklebur” value (cocklebur; [5]) was 0 and the “Cocklebur plant response rating” value (cocklebur; [6]) was 0. The “Giant foxtail plant response rating (0 to 10 scale)” value (giant foxtail; Preemergence, Rate 125 g/ha) was 8, the “Giant foxtail plant response rating” value (giant foxtail; [1]) was 9 and the “Giant foxtail plant response rating” value (giant foxtail; [2]) was 10. For the same compound, the “Giant foxtail plant response rating” value (giant foxtail; [3]) was 0, the “Giant foxtail plant response rating” value (giant foxtail; [4]) was 0 and the “Plant response rating, Giant foxtail” value (giant foxtail; [5]) was 0. The “Velvetleaf plant response rating (0 to 10 scale)” value (velvetleaf; Preemergence, Rate 125 g/ha) was 0, the “Velvetleaf plant response rating” value (velvetleaf; [1]) was 0 and the “Velvetleaf plant response rating” value (velvetleaf; [2]) was 0. For the same compound, the “Velvetleaf plant response rating” value (velvetleaf; [3]) was 0, the “Velvetleaf plant response rating” value (velvetleaf; [4]) was 0 and the “Plant response rating, Velvetleaf” value (velvetleaf; [5]) was 0. The “Sugarbeets plant response rating (0 to 10 scale)” value (sugar beet; Preemergence, Rate 125 g/ha) was 0, the “Sugarbeets plant response rating” value (sugar beet; [1]) was 0 and the “Sugarbeets plant response rating” value (sugar beet; [2]) was 3. For the same compound, the “Sugarbeets plant response rating” value (sugar beet; [3]) was 0, the “Sugarbeets plant response rating” value (sugar beet; [4]) was 0 and the “Plant response rating, Sugarbeets” value (sugar beet; [5]) was 0. For the same compound, the “Wild oats plant response rating (0 to 10 scale)” value (wild oat; Preemergence, Rate 125 g/ha) was 0, the “Wild oats plant response rating” value (wild oat; [1]) was 0 and the “Wild oats plant response rating” value (wild oat; [2]) was 1. The “Wild oats plant response rating” value (wild oat; [3]) was 0, the “Wild oats plant response rating” value (wild oat; [4]) was 0 and the “Plant response rating, Wild oats” value (wild oat; [5]) was 0. For the same compound, the “Ducksalad plant response rating” value (duck salad; [7]) was 0, the “Ducksalad plant response rating” value (duck salad; [8]) was 0 and the “Ducksalad plant response rating” value (duck salad; [9]) was 0. The “Ducksalad plant response rating” value (duck salad; [10]) was 0, the “Blackgrass plant response rating (0 to 10 scale)” value (blackgrass; Preemergence, Rate 125 g/ha) was 0 and the “Blackgrass plant response rating” value (blackgrass; [1]) was 0. For the same compound, the “Blackgrass plant response rating” value (blackgrass; [2]) was 4, the “Blackgrass plant response rating” value (blackgrass; [3]) was 0 and the “Blackgrass plant response rating” value (blackgrass; [4]) was 0. For the same compound, the “Plant response rating, Blackgrass” value (blackgrass; [5]) was 0, the “Blackgrass plant response rating” value (blackgrass; [6]) was 0 and the “Nutsedge plant response rating (0 to 10 scale)” value (purple nutsedge; Preemergence, Rate 125 g/ha) was 0. For the same compound, the “Nutsedge plant response rating” value (purple nutsedge; [1]) was 0, the “Nutsedge plant response rating” value (purple nutsedge; [3]) was 0 and the “Nutsedge plant response rating” value (purple nutsedge; [4]) was 0. For the same compound, the “Plant response rating, Nutsedge” value (purple nutsedge; [5]) was 0.
